ChEMBL document CHEMBL1201862, “PubChem BioAssay data set” (2004)
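All cell lines were grown in 96-well plates and treated with compound for 48 hours. Abbreviation: GI50, concentration required for 50% inhibition of growth.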 Activity calls are given as the source filed them. Rule as the data show it: active = GI50 up to about 1.1 µM and inactive = higher.

Key:
Assay in all cases: growth of human tumour cells (NCI), 48 h
SNB-75 = system: SNB-75
COLO 205 = system: COLO 205
HL-60 = system: HL-60
UACC-257 = system: UACC-257
HOP-62 = system: HOP-62
OVCAR-4 = system: OVCAR-4
NCI-H226 = system: NCI-H226
MDA-MB-231 = system: MDA-MB-231
M14 = system: M14
NCI-H23 = system: NCI-H23
BT-549 = system: BT-549
RXF 393 = system: RXF 393
OVCAR-8 = system: OVCAR-8
K562 = system: K562
LOX IMVI = system: LOX IMVI
NCI-H522 = system: NCI-H522
CAKI-1 = system: CAKI-1
RPMI-8226 = system: RPMI-8226
SF-539 = system: SF-539

SMILES	GI50 (SNB-75)	GI50 (COLO 205)	GI50 (HL-60)	GI50 (UACC-257)	GI50 (HOP-62)	GI50 (OVCAR-4)	GI50 (NCI-H226)	GI50 (MDA-MB-231)	GI50 (M14)	GI50 (NCI-H23)	GI50 (BT-549)	GI50 (RXF 393)	GI50 (OVCAR-8)	GI50 (K562)	GI50 (LOX IMVI)	GI50 (NCI-H522)	GI50 (CAKI-1)	GI50 (RPMI-8226)	GI50 (SF-539)
COc1ccc(-c2cc3c(c4cc(OC)ccc24)C(=O)OC3=O)cc1	68.1 µM (inactive)	> 100 µM (inactive)	> 100 µM (inactive)	> 100 µM (inactive)	> 100 µM (inactive)	> 100 µM (inactive)	> 100 µM (inactive)	> 100 µM (inactive)	> 100 µM (inactive)	> 100 µM (inactive)	> 100 µM (inactive)	> 100 µM (inactive)	> 100 µM (inactive)	> 100 µM (inactive)	> 100 µM (inactive)	> 100 µM (inactive)	> 100 µM (inactive)	> 100 µM (inactive)	–
C1CSCCSS[C@@H]2CCCCC2SC1 (some centres undefined)	> 100 µM (inactive)	> 100 µM (inactive)	56.6 µM (inactive)	> 100 µM (inactive)	> 100 µM (inactive)	> 100 µM (inactive)	–	> 100 µM (inactive)	> 100 µM (inactive)	> 100 µM (inactive)	> 100 µM (inactive)	–	> 100 µM (inactive)	> 100 µM (inactive)	> 100 µM (inactive)	> 100 µM (inactive)	–	–	> 100 µM (inactive)
Cc1nnc2ccccc2c1O	> 100 µM (inactive)	> 100 µM (inactive)	–	> 100 µM (inactive)	> 100 µM (inactive)	> 100 µM (inactive)	> 100 µM (inactive)	> 100 µM (inactive)	> 100 µM (inactive)	> 100 µM (inactive)	> 100 µM (inactive)	> 100 µM (inactive)	> 100 µM (inactive)	2.52 µM (inactive)	> 100 µM (inactive)	> 100 µM (inactive)	> 100 µM (inactive)	> 100 µM (inactive)	> 100 µM (inactive)
CCOC(=O)c1nc2ccc(C(F)(F)F)cc2nc1NCc1ccc(OC)cc1	85.9 µM (inactive)	93.8 µM (inactive)	–	74 µM (inactive)	98.9 µM (inactive)	63.7 µM (inactive)	> 100 µM (inactive)	> 100 µM (inactive)	> 100 µM (inactive)	84.1 µM (inactive)	60.4 µM (inactive)	> 100 µM (inactive)	> 100 µM (inactive)	39.5 µM (inactive)	48.6 µM (inactive)	11.9 µM (inactive)	> 100 µM (inactive)	69.8 µM (inactive)	> 100 µM (inactive)
NNC(=O)C(O)C(O)C(O)CO (centres undefined)	> 100 µM (inactive)	> 100 µM (inactive)	> 100 µM (inactive)	> 100 µM (inactive)	> 100 µM (inactive)	> 100 µM (inactive)	> 100 µM (inactive)	> 100 µM (inactive)	> 100 µM (inactive)	> 100 µM (inactive)	> 100 µM (inactive)	> 100 µM (inactive)	> 100 µM (inactive)	> 100 µM (inactive)	88.9 µM (inactive)	> 100 µM (inactive)	> 100 µM (inactive)	> 100 µM (inactive)	–
CC(=O)OCC(OC(C)=O)C1C[C@H]2O[C@@H]3[C@H](C[C@H]2O1)O[C@@]1(C[C@@H]3C)C[C@H](C)[C@@H]2O[C@]3(C[C@@H]2O1)C[C@H]1O[C@H]2[C@H](C)[C@H]4OC(=O)C[C@H]5CC[C@@H]6OC7[C@H]8O[C@]9(CC[C@H]%10CC(=O)[C@H](CC[C@H]%11C[C@@H](C)C(=O)C(C[C@@H]4O[C@H]2C[C@H]1O3)O%11)O%10)CC8O[C@@H]7[C@@H](O9)[C@H]6O5 (some centres undefined)	0.00265 µM (active)	0.00281 µM (active)	0.000489 µM (active)	–	0.00505 µM (active)	–	0.00703 µM (active)	0.0199 µM (active)	0.00619 µM (active)	0.00267 µM (active)	0.000553 µM (active)	0.00283 µM (active)	0.00964 µM (active)	0.00123 µM (active)	0.00486 µM (active)	0.00051 µM (active)	0.00515 µM (active)	0.00229 µM (active)	–
COc1ccc(P2(=S)OCCOP(=S)(c3ccc(OC)cc3)S2)cc1 (centres undefined)	> 52.7 µM (inactive)	3.56 µM (inactive)	2.64 µM (inactive)	11.2 µM (inactive)	3.58 µM (inactive)	12.3 µM (inactive)	5.16 µM (inactive)	3.13 µM (inactive)	5.14 µM (inactive)	4.7 µM (inactive)	13.9 µM (inactive)	–	3.47 µM (inactive)	2.51 µM (inactive)	2.84 µM (inactive)	2.2 µM (inactive)	2.31 µM (inactive)	–	2.76 µM (inactive)
COc1ccc(-c2c(C#N)c(N)nc(S)c2C#N)cc1	–	30.1 µM (inactive)	23.1 µM (inactive)	44.6 µM (inactive)	55.1 µM (inactive)	> 100 µM (inactive)	21.1 µM (inactive)	26.1 µM (inactive)	30 µM (inactive)	38.3 µM (inactive)	24.9 µM (inactive)	33.2 µM (inactive)	36.7 µM (inactive)	26.5 µM (inactive)	43.5 µM (inactive)	20.5 µM (inactive)	42.4 µM (inactive)	21.5 µM (inactive)	38.9 µM (inactive)
CC1(C)c2ccccc2C(=O)C12CCC(=O)CC2	0.504 µM (active)	> 100 µM (inactive)	> 100 µM (inactive)	> 100 µM (inactive)	> 100 µM (inactive)	> 100 µM (inactive)	> 100 µM (inactive)	> 100 µM (inactive)	> 100 µM (inactive)	> 100 µM (inactive)	> 100 µM (inactive)	12.4 µM (inactive)	> 100 µM (inactive)	> 100 µM (inactive)	> 100 µM (inactive)	> 100 µM (inactive)	> 100 µM (inactive)	–	> 100 µM (inactive)
CC(O)(C(=O)N(O)c1ccc(Cl)cc1)c1ccc(Cl)cc1 (centres undefined)	–	18.1 µM (inactive)	14.7 µM (inactive)	24.8 µM (inactive)	26.7 µM (inactive)	37.9 µM (inactive)	40.6 µM (inactive)	22.8 µM (inactive)	34 µM (inactive)	23.4 µM (inactive)	21.6 µM (inactive)	26.8 µM (inactive)	27.2 µM (inactive)	17.3 µM (inactive)	24.4 µM (inactive)	18.6 µM (inactive)	23.9 µM (inactive)	11.2 µM (inactive)	32.5 µM (inactive)
Cc1ccc(S(=O)(=O)N/N=C2/CC3CCC4CC2CC34)cc1 (centres undefined)	> 100 µM (inactive)	55 µM (inactive)	> 100 µM (inactive)	> 100 µM (inactive)	> 100 µM (inactive)	–	> 100 µM (inactive)	> 100 µM (inactive)	> 100 µM (inactive)	> 100 µM (inactive)	> 100 µM (inactive)	–	> 100 µM (inactive)	93.5 µM (inactive)	> 100 µM (inactive)	> 100 µM (inactive)	> 100 µM (inactive)	> 100 µM (inactive)	> 100 µM (inactive)
CN(CCNCc1cn(C)c2c1ccc1ccccc12)CCNCc1cn(C)c2c1ccc1ccccc12	1.21 µM (inactive)	0.948 µM (active)	1.06 µM (active)	1.55 µM (inactive)	1.79 µM (inactive)	1.33 µM (inactive)	–	1.79 µM (inactive)	0.726 µM (active)	1.64 µM (inactive)	1.57 µM (inactive)	0.499 µM (active)	1.85 µM (inactive)	0.458 µM (active)	1.52 µM (inactive)	1.77 µM (inactive)	1.73 µM (inactive)	2.84 µM (inactive)	1.77 µM (inactive)
O=[N+]([O-])C(=C(N1CCOCC1)N1CCOCC1)/C(Cl)=C(\Cl)[N+](=O)[O-]	19.4 µM (inactive)	3.18 µM (inactive)	–	5.55 µM (inactive)	15.7 µM (inactive)	16 µM (inactive)	47 µM (inactive)	3.85 µM (inactive)	6.35 µM (inactive)	3.33 µM (inactive)	4.59 µM (inactive)	1.77 µM (inactive)	–	3.69 µM (inactive)	2.15 µM (inactive)	1.48 µM (inactive)	1.64 µM (inactive)	2.31 µM (inactive)	11.6 µM (inactive)
Cn1c(=O)c2c(nc3n2CCC(=O)N3CCCCl)n(C)c1=O	> 100 µM (inactive)	> 100 µM (inactive)	> 100 µM (inactive)	> 100 µM (inactive)	> 100 µM (inactive)	> 100 µM (inactive)	> 100 µM (inactive)	> 100 µM (inactive)	> 100 µM (inactive)	> 100 µM (inactive)	> 100 µM (inactive)	–	> 100 µM (inactive)	> 100 µM (inactive)	> 100 µM (inactive)	–	–	> 100 µM (inactive)	–
O=C(CN1CCOCC1)c1ccc2c(c1)oc(=O)n2CCN1CCCC1	> 100 µM (inactive)	> 100 µM (inactive)	> 100 µM (inactive)	> 100 µM (inactive)	> 100 µM (inactive)	–	> 100 µM (inactive)	> 100 µM (inactive)	> 100 µM (inactive)	> 100 µM (inactive)	> 100 µM (inactive)	> 100 µM (inactive)	> 100 µM (inactive)	> 100 µM (inactive)	> 100 µM (inactive)	–	> 100 µM (inactive)	> 100 µM (inactive)	> 100 µM (inactive)
CN(C)c1ccc([S+]([O-])Nc2ccccc2)cc1 (centres undefined)	–	24.6 µM (inactive)	28.1 µM (inactive)	27.3 µM (inactive)	56 µM (inactive)	45 µM (inactive)	38.4 µM (inactive)	33.3 µM (inactive)	38.5 µM (inactive)	45.7 µM (inactive)	0.52 µM (active)	–	30.5 µM (inactive)	28.1 µM (inactive)	38.9 µM (inactive)	13.2 µM (inactive)	–	27.5 µM (inactive)	> 100 µM (inactive)
